Calls of active or inactive are those of the source. The calls are words filed in the database; no cut-off is given here.
Legend:
RAW264.7 [1] = assay: Inhibition of LPS-induced NO production in mouse RAW264.7 cells at 10 uM relative to control; assay type: functional
RAW264.7 [2] = assay: Inhibition of LPS-induced NO production in mouse RAW264.7 cells; assay type: functional, cell-based
RAW264.7 [3] = assay: Antiinflammatory activity against mouse RAW264.7 cells assessed as decrease in LPS-induced TNF-alpha level at 10 uM measured by ELISA assay; assay type: functional, cell-based
RAW264.7 [4] = assay: Antiinflammatory activity against mouse RAW264.7 cells assessed as decrease in LPS-induced IL-6 level at 10 uM measured by ELISA assay; assay type: functional, cell-based
RAW264.7 [5] = assay: Antiinflammatory activity against LPS-induced mouse RAW264.7 cells assessed as decrease in phosphorylation levels of p65 at 2.5 to 10 uM and measured by Western blot analysis; assay type: functional, cell-based; details: dose 2.5-10 µM
RAW264.7 [6] = assay: Antiinflammatory activity against LPS-induced mouse RAW264.7 cells assessed as decrease in phosphorylation levels of IkBalpha at 2.5 to 10 uM and measured by Western blot analysis; assay type: functional, cell-based; details: dose 2.5-10 µM
RAW264.7 [7] = assay: Antiinflammatory activity against LPS-induced mouse RAW264.7 cells assessed as decrease in iNOS expression at 2.5 to 10 uM and measured by Western blot analysis; assay type: functional, cell-based; details: dose 2.5-10 µM
A549 = assay: Antiproliferative activity against human A549 cells; assay type: functional, cell-based
NCI-H460 = assay: Antiproliferative activity against human NCI-H460 cells; assay type: functional, cell-based
NCI-H1299 [8] = assay: Antiproliferative activity against human NCI-H1299 cells; assay type: functional, cell-based
NCI-H1975 [9] = assay: Antiproliferative activity against human NCI-H1975 cells; assay type: functional, cell-based
RAW264.7 [10] = assay: Cytotoxicity against mouse RAW264.7 cells at 10 uM measured after 24 hrs by CCK-8 assay relative to control; assay type: toxicity, cell-based; details: raw264.7, 24 h
NCI-H1299 [11] = assay: Induction of cell cycle arrest in human NCI-H1299 cells assessed as accumulation G1 phase at 2 uM incubated for 72 hrs (reference value: 40.25%); assay type: functional
NCI-H1299 [12] = assay: Induction of cell cycle arrest in human NCI-H1299 cells assessed as accumulation G2 phase at 2 uM incubated for 72 hrs (reference value: 16.08%); assay type: functional
NCI-H1299 [13] = assay: Induction of cell cycle arrest in human NCI-H1299 cells assessed as accumulation S phase at 2 uM incubated for 72 hrs (reference value: 43.67%); assay type: functional
NCI-H1299 [14] = assay: Induction of cell cycle arrest in human NCI-H1299 cells assessed as accumulation G1 phase at 8 uM incubated for 72 hrs (reference value: 40.25%); assay type: functional
NCI-H1299 [15] = assay: Induction of cell cycle arrest in human NCI-H1299 cells assessed as accumulation G2 phase at 8 uM incubated for 72 hrs (reference value: 16.08%); assay type: functional
NCI-H1299 [16] = assay: Induction of cell cycle arrest in human NCI-H1299 cells assessed as accumulation S phase at 8 uM incubated for 72 hrs (reference value: 43.67%); assay type: functional
NCI-H1975 [17] = assay: Induction of cell cycle arrest in human NCI-H1975 cells assessed as accumulation G1 phase at 2 uM incubated for 72 hrs (reference value: 66.36%); assay type: functional
NCI-H1975 [18] = assay: Induction of cell cycle arrest in human NCI-H1975 cells assessed as accumulation G2 phase at 2 uM incubated for 72 hrs (reference value: 11.97%); assay type: functional
NCI-H1975 [19] = assay: Induction of cell cycle arrest in human NCI-H1975 cells assessed as accumulation S phase at 2 uM incubated for 72 hrs (reference value: 22.67%); assay type: functional
NCI-H1975 [20] = assay: Induction of cell cycle arrest in human NCI-H1975 cells assessed as accumulation G1 phase at 8 uM incubated for 72 hrs (reference value: 66.36%); assay type: functional
NCI-H1975 [21] = assay: Induction of cell cycle arrest in human NCI-H1975 cells assessed as accumulation G2 phase at 8 uM incubated for 72 hrs (reference value: 11.97%); assay type: functional
NCI-H1975 [22] = assay: Induction of cell cycle arrest in human NCI-H1975 cells assessed as accumulation S phase at 8 uM incubated for 72 hrs (reference value: 22.67%); assay type: functional
NCI-H1975 [23] = assay: Antiproliferative activity against human NCI-H1975 cells assessed as decrease in p-p65 expression at 2 to 8 uM measured after 72 hrs by western blot analysis; assay type: functional, cell-based; details: dose 2-8 µM

## COc1ccc2[nH]c3c(c2c1)C[C@@H]1C(=CC[C@@H]2[C@@]1(C)C(=O)C[C@]1(C)[C@@H]([C@H](C)CC[C@@H](O)C(C)(C)O)CC[C@@]21C)C3(C)C
RAW264.7 [1]
  inhibition at 10 µM: 87.6%
RAW264.7 [2]
  IC50: 5.05 µM
RAW264.7 [3]
  Activity: Active
RAW264.7 [4]
  Activity: Active
RAW264.7 [5]
  Activity: Active
RAW264.7 [6]
  Activity: Active
RAW264.7 [7]
  Activity: Active
A549
  IC50: 21.9 µM
NCI-H460
  IC50: > 30 µM
NCI-H1299 [8]
  IC50: > 30 µM
NCI-H1975 [9]
  IC50: 19 µM

## C[C@H](CC[C@@H](O)C(C)(C)O)[C@H]1CC[C@@]2(C)[C@@H]3CC=C4[C@@H](C/C(=C\c5ccncc5)C(=O)C4(C)C)[C@]3(C)C(=O)C[C@]12C
RAW264.7 [10]
  Activity: Toxic
A549
  IC50: 11.1 µM
NCI-H460
  IC50: 15.7 µM
NCI-H1299 [8]
  IC50: 8.39 µM
NCI-H1975 [9]
  IC50: 7.24 µM
NCI-H1299 [11]
  Activity: 42.49%
NCI-H1299 [12]
  Activity: 17.4%
NCI-H1299 [13]
  Activity: 40.12%
NCI-H1299 [14]
  Activity: 50.5%
NCI-H1299 [15]
  Activity: 16.38%
NCI-H1299 [16]
  Activity: 33.12%
NCI-H1975 [17]
  Activity: 66.51%
NCI-H1975 [18]
  Activity: 12.84%
NCI-H1975 [19]
  Activity: 20.66%
NCI-H1975 [20]
  Activity: 83.96%
NCI-H1975 [21]
  Activity: 6.38%
NCI-H1975 [22]
  Activity: 9.67%
NCI-H1975 [23]
  Activity: Active

Source: ChEMBL document CHEMBL5104169, “Design and synthesis of mogrol derivatives modified on a ring with anti-inflammatory and anti-proliferative activities” (Bioorg Med Chem Lett, 2022)
